In the NIST ThermoML archive (doi:10.1016/j.jct.2016.05.021):
Numbers after ± are expanded uncertainties.

Assay: xn = mol fraction of the nth substance listed
Conditions: 100 kPa, Liquid; for speed of sound: Frequency=3 MHz, Sing-around technique in a fixed-path interferometer; for mass density: Vibrating tube method

O=C1CCCN1 [2-pyrrolidinone] + CCCC[n+]1ccn(C)c1.O=S(=O)([N-]S(=O)(=O)C(F)(F)F)C(F)(F)F
Conditions	mass density, 298.15 K [kg/m3]	mass density, 303.15 K [kg/m3]	mass density, 308.15 K [kg/m3]	mass density, 313.15 K [kg/m3]	speed of sound, 298.15 K [m/s]	speed of sound, 303.15 K [m/s]	speed of sound, 308.15 K [m/s]	speed of sound, 313.15 K [m/s]	speed of sound, 318.15 K [m/s]
x2 = 0	1107.16 ± 1	1103.07 ± 1	1098.99 ± 1	1094.9 ± 1	1634.3 ± 1.4	1617.7 ± 1.4	1602.3 ± 1.4	1585.4 ± 1.4	1569.4 ± 1.4
x2 = 0.1242	1204.09 ± 1	1198.66 ± 1	1193.23 ± 1	1187.79 ± 1	1491.9 ± 1.4	1477.1 ± 1.4	1462.9 ± 1.4	1448.4 ± 1.3	1434.3 ± 1.3
x2 = 0.22	1253.58 ± 1	1248.02 ± 1	1242.46 ± 1	1236.9 ± 1	1431.2 ± 1.3	1417 ± 1.3	1403.4 ± 1.3	1389.4 ± 1.3	1375.9 ± 1.3
x2 = 0.3191	1292.55 ± 1	1287.03 ± 1	1281.51 ± 1	1275.99 ± 1	1387.3 ± 1.3	1373.5 ± 1.3	1360.3 ± 1.3	1346.9 ± 1.3	1333.8 ± 1.3
x2 = 0.4048	1320.08 ± 1	1314.63 ± 1	1309.18 ± 1	1303.73 ± 1	1357.6 ± 1.3	1344.4 ± 1.3	1331.3 ± 1.3	1318.2 ± 1.3	1305.5 ± 1.3
x2 = 0.51	1348.24 ± 1	1342.88 ± 1	1337.52 ± 1	1332.16 ± 1	1327.5 ± 1.3	1314.7 ± 1.3	1302.1 ± 1.3	1289.4 ± 1.3	1276.9 ± 1.3
x2 = 0.5945	1367.5 ± 1	1362.18 ± 1	1356.86 ± 1	1351.54 ± 1	1306.9 ± 1.3	1294.3 ± 1.3	1281.8 ± 1.3	1269.4 ± 1.3	1257.2 ± 1.3
x2 = 0.7171	1391.3 ± 1	1386.09 ± 1	1380.88 ± 1	1375.67 ± 1	1280.2 ± 1.3	1268.1 ± 1.3	1255.9 ± 1.3	1244 ± 1.3	1232.2 ± 1.3
x2 = 0.8383	1411.52 ± 1	1406.4 ± 1	1401.28 ± 1	1396.16 ± 1	1256.7 ± 1.3	1244.9 ± 1.3	1233.1 ± 1.3	1221.8 ± 1.3	1210.4 ± 1.3
x2 = 0.9084	1421.66 ± 1	1416.7 ± 1	1411.74 ± 1	1406.78 ± 1	1244 ± 1.3	1232.4 ± 1.3	1221 ± 1.3	1209.8 ± 1.3	1198.6 ± 1.3
